Reference: US20240286998A1, “F[…], ANALOGUES THEREOF, AND METHODS USING SAME” (Saint Joseph's University, priority 2021, published 2024)
Like-named read-outs stand apart in the source and are kept apart here.

Columns and labels:
C57BL/6J mice = experiment: Head-Twitch Response (HTR) in mice; format: in vivo; conditions: for HTR counts over baseline / induction of HTR: compared to vehicle; for Duration of HTR above baseline: C57BL/6J mice, ascending and descending arm dose; for ED50: Mus musculus, ip, 0.5 h
Protocol: Male C57BL/6J mice (6-8 weeks old) were obtained from Jackson Laboratories (Bar Harbor, ME) and housed in a vivarium at the University of California San Diego, an AAALAC-approved animal facility that meets all federal and state requirements for care and treatment of laboratory animals. All animal experiments were carried out in accordance with NIH guidelines and were approved by the UCSD Institutional Animal Care and Use Committee. Mice were housed up to four per cage in a climate-controlled room on a reverse-light cycle (lights on at 1900 h, off at 0700 h). Animals were provided with ad libitum access to food and water, with the exception of during behavioral testing.
Testing was conducted between 1000 and 1800 h. Head movements were recorded using a head-mounted magnet and a magnetometer coil as described in Halberstadt et al. (Psychopharmacology, 2013, 227(4):727-739). For the head mounted magnet, mice were anesthetized, an incision was made in the scalp, and a neodymium magnet was attached to the dorsal surface of the cranium using dental cement. Following a 2-week recovery period, behavioral experiments were conducted in a well-lit room. At least 7 days occurred between sessions to avoid any carryover effects. Test substances (i.e., dimethyltryptamine (DMT), diethyltryptamine (DET), psilocybin, 6-fluoro-diethyltryptamine (6-F-DET), compounds 3-4, 6, 9, 12-13, 22, 33, 41, 69, 88, 166, and 178) were administered intraperitoneally (IP) at a volume of 5 mL/kg. Mice were treated with vehicle (saline) or 6 doses of the test compound and then placed in a glass cylinder surrounded by a magnetometer coil and tested for 30 min. Coil voltage was filtered (1 kHz lowpass), digitized (20 kHz sampling rate) and saved to disk using a Powerlab/8SP with LabChart v 7.3.2 (ADInstruments, Colorado Springs, CO).
The entire 30 min recordings were examined for head twitches. Established procedures based on artificial intelligence were used to identify head twitches in the recordings (Scientific Reports, 2020, 10(1):1-12). HTR counts were analyzed using one-way analyses of variance (ANOVA), followed by post hoc pairwise comparisons between individual groups and vehicle using Dunnett's multiple comparisons test. […] Median effective doses (ED50 values) and 95% confidence intervals (95% CI) were calculated using nonlinear regression (Prism 9.0.2, GraphPad Software, San Diego, CA) (Table 4 and FIGS. 1-3).

Serotonin 5-HT2A (human) = Serotonin 5-HT2A (human) (Homo sapiens (Human), UniProt P28223); experiment: 5-HT2A receptor binding, [3H]-ketanserin competition in membrane fractions; conditions: 1 nM [3H]-ketanserin, Cheng-Prusoff, N=1-3
5-HT2A = 5-HT2A (Homo sapiens (Human), UniProt P28223); experiment: 5-HT2A Gq-mediated calcium flux functional assay; format: cell-based
5-HT2B = 5-HT2B (Homo sapiens (Human), UniProt P41595); experiment: 5-HT2B Gq-mediated calcium flux functional assay; format: cell-based
Chain of 5-HT2B (P41595 whole entry): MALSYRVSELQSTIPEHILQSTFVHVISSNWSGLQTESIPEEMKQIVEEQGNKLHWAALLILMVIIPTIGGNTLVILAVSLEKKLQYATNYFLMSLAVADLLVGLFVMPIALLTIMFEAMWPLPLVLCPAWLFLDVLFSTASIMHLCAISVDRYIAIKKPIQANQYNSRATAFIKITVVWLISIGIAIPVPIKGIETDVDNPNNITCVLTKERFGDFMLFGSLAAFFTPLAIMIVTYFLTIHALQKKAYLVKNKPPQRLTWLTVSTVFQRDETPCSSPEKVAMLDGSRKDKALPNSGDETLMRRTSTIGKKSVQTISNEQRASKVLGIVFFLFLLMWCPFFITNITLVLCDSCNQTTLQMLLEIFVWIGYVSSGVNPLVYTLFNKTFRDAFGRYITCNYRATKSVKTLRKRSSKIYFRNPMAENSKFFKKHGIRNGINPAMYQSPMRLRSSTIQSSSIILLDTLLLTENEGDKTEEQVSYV

5-HT2C = 5-HT2C (Homo sapiens (Human), UniProt P28335); experiment: 5-HT2C Gq-mediated calcium flux functional assay; format: cell-based
Chain of 5-HT2C (P28335 whole entry, looked up): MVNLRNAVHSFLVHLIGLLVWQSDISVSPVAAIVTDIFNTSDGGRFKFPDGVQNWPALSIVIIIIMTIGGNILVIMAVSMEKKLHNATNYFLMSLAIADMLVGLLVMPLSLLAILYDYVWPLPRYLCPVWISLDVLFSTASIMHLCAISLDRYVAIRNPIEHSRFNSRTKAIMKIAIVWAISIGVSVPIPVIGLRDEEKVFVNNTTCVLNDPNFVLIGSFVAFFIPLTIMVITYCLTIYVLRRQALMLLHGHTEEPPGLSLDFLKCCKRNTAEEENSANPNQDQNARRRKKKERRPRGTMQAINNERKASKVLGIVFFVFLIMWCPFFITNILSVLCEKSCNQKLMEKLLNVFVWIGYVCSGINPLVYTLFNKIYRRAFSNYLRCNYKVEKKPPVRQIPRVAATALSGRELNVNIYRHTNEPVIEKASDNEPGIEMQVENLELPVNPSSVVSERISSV

5-HT1A = 5-HT1A (Homo sapiens (Human), UniProt P08908); experiment: 5-HT1A Gi/o-mediated cAMP inhibition, GloSensor assay; format: cell-based
[1] = Metabolic stability in cryopreserved human hepatocytes; format: in vitro ADME; conditions: cryopreserved hepatocytes, human hepatocytes, 1 μM, 37° C.; for hepatocyte CLint at 1 μM: read-out: Clint (μL/min/10^6 cells)
Protocol: (§1) The metabolic stability of a test compounds were assessed by monitoring disappearance of each compound in the presence of cryopreserved hepatocytes for up to 1 hour at 37° C. Following protein precipitation and centrifugation, the samples were analyzed by UPLC-MS-MS. Test Compound stock solutions (10 mM) were diluted 1 in 100 (2 μL 10 mM DMSO stock+198 μL 50:50 acetonitrile:water) to provide a 100 μM working solution. Following addition of test compounds to buffer, samples were pre-incubated at 37° C. for 5 minutes prior to initiating the incubation by the addition of test compounds to hepatocytes (these were held at 37° C. during pre-incubation period). Aliquots were sampled at 0, 5, 10, 20, 40 and 60 min and added to ice cold acetonitrile to terminate the reaction and precipitate proteins. All samples were mixed, centrifuged, and the supernatants were analyzed by UPLC-MS-MS using a Phenomenex Luna Omega […], C18 100 Å, 50×2.1 mm column. The final incubation conditions were as follows: hepatocytes 0.5×10^6 viable cells/mL, test compound 1 μM (n=1), acetonitrile concentration<0.01% (v/v) and DMSO concentration<0.01% (v/v). The intrinsic clearance (Clint) and half-life (T1/2) values are determined from the slope of the parent depletion curve. Positive control compounds with known metabolic clearance were included (diltiazem and naloxone).

human hepatocytes = experiment: as above; format: in vitro ADME
Protocol: as §1

[2] = cAMP inhibition, 0.2 μM isoproterenol, IA = Inactive
[3] = read-out: HTR ED50 μmol/kg (95% CI)
[4] = read-out: HTR ED50 mg/kg (95% CI)
[5] = human hepatocytes, 1 μM, 37° C.

| Compound | 5-HT2A pKi ± SEM (Serotonin 5-HT2A (human)) | EC50 (5-HT2A) [nM] | 5-HT2A-Ca2+ FLUX Emax (% 5-HT) (5-HT2A; IA = Inactive, N=1-3) | EC50 (5-HT2B) [nM] | 5-HT2B-Ca2+ FLUX Emax (% 5-HT) (5-HT2B; IA = Inactive, N=1-3) | EC50 (5-HT2C) [nM] | 5-HT2C-Ca2+ FLUX Emax (% 5-HT) (5-HT2C; IA = Inactive, N=1-3) | EC50 (5-HT1A) [nM] | 5-HT1A-cAMP Emax (% 5-HT) (5-HT1A; [2]) | ED50 (C57BL/6J mice; [3]) [µmol/kg] | ED50 (C57BL/6J mice; [4]) [mg/kg] | other results |
| --- | --- | --- | --- | --- | --- | --- | --- | --- | --- | --- | --- | --- |
| CCN(CC)CCc1c[nH]c2cc(F)ccc12 [6-F-DET, 6-fluoro-N,N-diethyltryptamine, reference compound] | – | – | – | – | – | – | – | – | – | – | – | HTR counts over baseline / induction of HTR (C57BL/6J mice): inactive |
| CN(C)CCc1c[nH]c2ccccc12 [DMT, dimethyl tryptamine, reference compound] | – | – | – | – | – | – | – | – | – | – | – | Duration of HTR above baseline (C57BL/6J mice): about 10 minutes |
| CCCN(CCc1c[nH]c2ccc(F)cc12)C(C)C [Example 4, N-(2-(5-fluoro-1H-indol-3-yl)ethyl)-N-isopropylpropan-1-amine] | 6.02 ± 0.07 | 0.468 | 99.5 ± 1.1 | 0.759 | 105.60 ± 0.7 | 9.12 | 74.6 ± 2.0 | 331 | 80.5 ± 2.5 | 2.18 | 0.65 | HTR counts over baseline / induction of HTR (C57BL/6J mice): significant increase; half-life at 1 μM [1]: 13 min; hepatocyte CLint at 1 μM [1]: 109 µL/min/1e6 cells; metabolism by human hepatocytes (human hepatocytes; qualitative statement): rapidly metabolized |
| CCN(CC)CCc1c[nH]c2cccc(F)c12 [Example 8, N,N-diethyl-2-(4-fluoro-1H-indol-3-yl)ethan-1-amine] | 6.09 | – | – | – | – | – | – | – | – | – | – | HTR counts over baseline / induction of HTR (C57BL/6J mice): inactive |
| CCCN(CC)CCc1c[nH]c2cc(F)c(F)cc12 [Example 9, N-(2-(5,6-difluoro-1H-indol-3-yl)ethyl)-N-ethylpropan-1-amine] | 6.15 ± 0.21 | 1.02 | 105.7 ± 1.9 | 1.7 | 96.6 ± 2.0 | 19.1 | 100.7 ± 3.0 | 229 | 89.1 ± 2.9 | 3 | 0.91 | HTR counts over baseline / induction of HTR (C57BL/6J mice): significant increase; melting point: 83 to 86 °C |
| CCCN(C)CCc1c[nH]c2ccc(F)cc12 [Example 13, N-(2-(5-fluoro-1H-indol-3-yl)ethyl)-N-methylpropan-1-amine] | 6.72 ± 0.12 | 1.58 | 103.0 ± 1.1 | 2.63 | 77.0 ± 1.2 | 1.51 | 115.0 ± 4.0 | 245 | 85.8 ± 2.5 | 4.81 | 1.13 | melting point: 80 to 82 °C |
| CCCN(CCc1c[nH]c2ccc(F)cc12)C(C)CC (stereo not drawn) [compound 22, N-(2-(5-fluoro-1H-indol-3-yl)ethyl)-N-propylbutan-2-amine] | 5.97 ± 0.02 | 0.891 | 105.4 ± 1.6 | 0.813 | 98.9 ± 1.6 | 50.1 | 97.5 ± 2.6 | 324 | 102.90 ± 1.9 | 12.4 | 3.88 | – |
| CCCN(CCc1c[nH]c2ccc(F)cc12)C1CCC1 [compound 33, N-(2-(5-fluoro-1H-indol-3-yl)ethyl)-N-propylcyclobutanamine] | 6.25 ± 0.003 | 0.49 | 107.0 ± 1.9 | 0.589 | 115.6 ± 2.2 | 19.1 | 105.4 ± 1.8 | 14.5 | 100.7 ± 1.3 | 2.55 | 0.79 | 5-HT2A-Ca2+ FLUX pEC50 (5-HT2A; IA = Inactive, N=1-3): 9.31 ± 0.06; 5-HT2B-Ca2+ FLUX pEC50 (5-HT2B; IA = Inactive, N=1-3): 9.23 ± 0.07; 5-HT2C-Ca2+ FLUX pEC50 (5-HT2C; IA = Inactive, N=1-3): 7.72 ± 0.05; 5-HT1A-cAMP pEC50 (5-HT1A; [2]): 7.84 ± 0.04 |
| CCCN(CC)CCc1c[nH]c2c(F)cc(OC)cc12 [compound 41, N-ethyl-N-(2-(7-fluoro-5-methoxy-1H-indol-3-yl)ethyl)propan-1-amine] | 6.15 ± 0.34 | – | – | – | – | – | – | – | – | 3.56 | 1.12 | – |
| CCN(C)CCc1c[nH]c2c(F)cc(F)cc12 [compound 69, 2-(5,7-difluoro-1H-indol-3-yl)-N-ethyl-N-methylethan-1-amine] | 6.90 ± 0.002 | – | – | – | – | – | – | – | – | 4.81 | 1.32 | – |
| CCN(C)CCc1c[nH]c2c(F)cc(OC)cc12 [compound 88, N-ethyl-2-(7-fluoro-5-methoxy-1H-indol-3-yl)-N-methylethan-1-amine] | 6.71 ± 0.31 | 1.95 | 90.6 ± 0.8 | 5.62 | 37.5 ± 0.7 | 20.4 | 86.8 ± 1.4 | – | – | 1.95 | 0.56 | – |
| CCCN(CC)CCc1c[nH]c2c(F)cc(C)cc12 [compound 166, N-ethyl-N-(2-(7-fluoro-5-methyl-1H-indol-3-yl)ethyl)propan-1-amine] | 5.96 ± 0.25 | 18.2 | 98.1 ± 0.7 | 33.1 | 95.9 ± 0.7 | 200 | 94.6 ± 1.7 | – | – | 6.56 | 1.96 | – |
| C=CC(C)N(C)CCc1c[nH]c2ccc(F)cc12 (stereo not drawn) [compound 178, N-(2-(5-fluoro-1H-indol-3-yl)ethyl)-N-methylbut-3-en-2-amine] | 6.25 | 5.37 | 84.7 ± 1.2 | 5.5 | 27.7 ± 0.5 | 15.8 | 87.4 ± 1.5 | – | – | 3.53 | 0.87 | – |
| COc1ccc([C@@H]2Sc3ccccc3N(CCN(C)C)C(=O)[C@@H]2OC(C)=O)cc1 [diltiazem, reference compound] | – | – | – | – | – | – | – | – | – | – | – | Clint (μL/min/10^6 cells) (human hepatocytes; [5]): 32 μL/min/10^6 cells; T1/2 (human hepatocytes; [5]): 44 min |
| C=CCN1CC[C@]23c4c5ccc(O)c4O[C@H]2C(=O)CC[C@@]3(O)[C@H]1C5 [naloxone, reference compound] | – | – | – | – | – | – | – | – | – | – | – | half-life at 1 μM [1]: 10 min; hepatocyte CLint at 1 μM [1]: 138 µL/min/1e6 cells |
| CN(C)CCc1c[nH]c2cccc(O)c12 [psilocin, reference compound] | – | – | – | – | – | – | – | – | – | – | – | Duration of HTR above baseline (C57BL/6J mice): about 35 minutes |
